The text below walks through data of US5766871A, “Screening and characterization of glutaryl-7-aminocephalosporanic acid acylase” (priority 1996, dated 1998).

For assay [1], the target named is T1, GL-7-ACA acylase of P. nitroreducens ATCC 33634 (Pseudomonas nitroreducens, UniProt E0D5C2).
T1 construct: periplasmic
T1 sequence (E0D5C2 24-556): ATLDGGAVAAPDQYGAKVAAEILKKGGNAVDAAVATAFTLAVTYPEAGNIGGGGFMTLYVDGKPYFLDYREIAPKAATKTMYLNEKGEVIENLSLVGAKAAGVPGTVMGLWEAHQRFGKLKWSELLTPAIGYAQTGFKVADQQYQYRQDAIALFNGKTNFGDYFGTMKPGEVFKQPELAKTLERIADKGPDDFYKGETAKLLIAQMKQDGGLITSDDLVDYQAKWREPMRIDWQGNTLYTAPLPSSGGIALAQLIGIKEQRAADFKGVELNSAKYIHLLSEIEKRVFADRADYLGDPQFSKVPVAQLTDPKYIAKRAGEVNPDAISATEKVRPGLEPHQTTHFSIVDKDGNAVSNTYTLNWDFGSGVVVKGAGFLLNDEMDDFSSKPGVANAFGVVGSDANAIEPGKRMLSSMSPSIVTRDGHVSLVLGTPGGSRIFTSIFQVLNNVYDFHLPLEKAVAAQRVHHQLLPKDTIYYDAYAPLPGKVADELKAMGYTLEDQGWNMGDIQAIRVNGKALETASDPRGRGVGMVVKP
T1 sequence (E0D5C2 25-556 partner): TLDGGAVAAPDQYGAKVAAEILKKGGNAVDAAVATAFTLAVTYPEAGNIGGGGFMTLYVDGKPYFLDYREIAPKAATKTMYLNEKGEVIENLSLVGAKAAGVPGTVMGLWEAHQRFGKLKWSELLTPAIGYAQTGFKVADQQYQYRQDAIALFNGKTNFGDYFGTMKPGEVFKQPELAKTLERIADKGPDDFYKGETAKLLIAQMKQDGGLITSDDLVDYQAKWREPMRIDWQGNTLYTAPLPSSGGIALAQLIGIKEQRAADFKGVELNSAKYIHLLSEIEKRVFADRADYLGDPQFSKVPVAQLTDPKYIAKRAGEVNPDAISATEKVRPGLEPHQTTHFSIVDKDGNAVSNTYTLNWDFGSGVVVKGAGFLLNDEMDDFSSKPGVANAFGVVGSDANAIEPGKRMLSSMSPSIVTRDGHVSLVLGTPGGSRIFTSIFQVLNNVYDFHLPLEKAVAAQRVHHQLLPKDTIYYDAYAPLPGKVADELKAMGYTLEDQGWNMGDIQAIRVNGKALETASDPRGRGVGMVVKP
Briefly: Substrate profile of GL-7-ACA acylase, whole cells of ATCC 33634. It is filed as biochemical. The settings on record: for activity as substrate, in words: cells of ATCC 33634, compared with GL-7-ACA; for relative activity (percentage relative to the activity for GL7-ACA): whole cells of ATCC 33634, 0.2 g/l substrate, 37° C., 3 hr. Here is the method:
(§1) Colonies forming clear zones were cultivated in Nutrient Broth (Difco, Detroit, Mich.) and tested for GL-7-ACA acylase activity as described by Shibuya et al. (Agric. Biol. Chem. 45: 1561-1567, 1981). The whole-cell suspension of ATCC 33634 in 100 mM acetate buffer (pH 5.0) was used as the acylase source. One unit of the acylase activity was defined as the amount of enzyme that liberates 1 μmole of […] per min.
Cells of ATCC 33634 were used to convert GL-7-ACA and related compounds (Table 2). GL-7-ACA, GL-7-ADCA, and succinyl-7-ACA were prepared according to the method of Shibuya et al. (Agric. Biol. Chem. 45: 1561-1567, 1981).
^a The relative GL7-ACA acylase activity was presented as percentage
relative to the activity for GL7-ACA. Whole cells of ATCC 33634 were
incubated with 0.2 g/l of GL7-ACA, GL7-ADCA, succinyl 7ACA, or Ceph C at […]

For assay [2], the system named is P. nitroreducens ATCC 33634. Briefly: Effect of composition of media on production of GL-7-ACA acylase. It is filed as cell-based, Pseudomonas nitroreducens. Here is the method: as §1
To obtain the optimal medium for P. nitroreducens ATCC 33634 cultivation, various media were tested according to the report of Nikolov and Danielsson (Enzyme Microbiol. Technol. 16: 1031-1036, 1994) (Table 1). The cultivation was carried out in 500 ml flasks containing 100 ml of media (Table 1) at 30° C. and 150 rpm for 24 hr. All media were adjusted to pH 7.5 before autoclaving. Yeast extract, casein, peptone, and meat extract were purchased from Difco Laboratories Inc. (Detroit, Mich.).

Assay [3] concerns the target T1, GL-7-ACA acylase of P. nitroreducens ATCC 33634. Briefly: Effect of various inhibitors on the acylase activity. It is filed as biochemical. How it is done:
It has been reported that the activity of GL-7-ACA acylases can be inhibited by their own products, e.g., 7-ACA and glutaric acid. Thus, the inhibitory effects of various compounds on the present acylase were tested (Table 4). The compounds were 7-ACA, glutaric acid, glutamate, succinyl-7-ACA, and Ceph C, all of which were used at 20 mM.

Consider `CC(=O)OCC1=C(C(=O)O)N2C(=O)[C@@H](NC(=O)CCC(=O)O)[C@H]2SC1` [Succinyl-7ACA, succinyl-7-ACA], for which, in assay [1], the “activity as substrate, in words” value is “No activity was detected” and the “relative activity (percentage relative to the activity for GL7-ACA)” value is “not detected”. With `CC(=O)OCC1=C(C(=O)O)N2C(=O)[C@@H](NC(=O)CCCC(=O)O)[C@H]2SC1` [GL-7-ACA, glutaryl-7-aminocephalo-sporanic acid], in assay [1], the “relative activity (percentage relative to the activity for GL7-ACA)” value was 100%. Turning to `CC(=O)OCC1=C(C(=O)O)N2C(=O)[C@@H](NC(=O)CCC[C@@H](N)C(=O)O)[C@H]2SC1` [Ceph C, cephalosporin C], in assay [1], the “activity as substrate, in words” value is recorded as “No activity was detected” and the “relative activity (percentage relative to the activity for GL7-ACA)” value is listed as “not detected”. On to `O=C(O)CCCC(=O)O` [Glutaric acid, glutaric acid], for which the “inhibition of the enzyme activity” value in assay [2] (glutaric acid at 0.12%) is on record as “up to 50%”. Also, in assay [2] (in ATCC 33634), the “induction of GL-7-ACA acylase activity” value is “did not induce” and the “lowest concentration that inhibited the acylase activity” value stood at 0.02%.

Turning to `N[C@@H](CCC(=O)O)C(=O)O` [Glutamate, glutamate], in assay [3], the “Relative activity (%) of acylase with inhibitor” value is given as less than 1%. Consider `CC(=O)OCC1=C(C(=O)O)N2C(=O)[C@@H](N)[C@H]2SC1` [7-ACA, 7-Aminocephalosporanic acid], for which the “inhibitory effect, in words” value in assay [3] (compounds used at 20 mM) is recorded as “strongest inhibitory effects”. `CC1=C(C(=O)O)N2C(=O)[C@@H](NC(=O)CCCC(=O)O)[C@H]2SC1` [GL-7-ADCA, glutaryl-desacetoxy-7-aminocephalosporanic acid]: in assay [1], the “activity as substrate, in words” value was “nearly three times more activity” and the “relative activity (percentage relative to the activity for GL7-ACA)” value was 294%.
